Drawing on patent publication US9434734B2, “Substituted pyrazoloquinazolinones and pyrroloquinazolinones as allosteric modulators of group II metabotropic glutamate receptors” (Domain Therapeutics, priority 2012, dated 2016), this text covers IC50 and melting point for 28 compounds.

pIC50: −log10 of the molar value.

The target of data set [1] is T1, human mGluR2 (hmGluR2) transiently over-expressed in HEK-293 cells (Homo sapiens, UniProt Q14416).
T1 construct: expressed in transfected cells; host or cells: HEK-293 cells, transient co-transfection by electroporation
T1 sequence (Q14416 19-872): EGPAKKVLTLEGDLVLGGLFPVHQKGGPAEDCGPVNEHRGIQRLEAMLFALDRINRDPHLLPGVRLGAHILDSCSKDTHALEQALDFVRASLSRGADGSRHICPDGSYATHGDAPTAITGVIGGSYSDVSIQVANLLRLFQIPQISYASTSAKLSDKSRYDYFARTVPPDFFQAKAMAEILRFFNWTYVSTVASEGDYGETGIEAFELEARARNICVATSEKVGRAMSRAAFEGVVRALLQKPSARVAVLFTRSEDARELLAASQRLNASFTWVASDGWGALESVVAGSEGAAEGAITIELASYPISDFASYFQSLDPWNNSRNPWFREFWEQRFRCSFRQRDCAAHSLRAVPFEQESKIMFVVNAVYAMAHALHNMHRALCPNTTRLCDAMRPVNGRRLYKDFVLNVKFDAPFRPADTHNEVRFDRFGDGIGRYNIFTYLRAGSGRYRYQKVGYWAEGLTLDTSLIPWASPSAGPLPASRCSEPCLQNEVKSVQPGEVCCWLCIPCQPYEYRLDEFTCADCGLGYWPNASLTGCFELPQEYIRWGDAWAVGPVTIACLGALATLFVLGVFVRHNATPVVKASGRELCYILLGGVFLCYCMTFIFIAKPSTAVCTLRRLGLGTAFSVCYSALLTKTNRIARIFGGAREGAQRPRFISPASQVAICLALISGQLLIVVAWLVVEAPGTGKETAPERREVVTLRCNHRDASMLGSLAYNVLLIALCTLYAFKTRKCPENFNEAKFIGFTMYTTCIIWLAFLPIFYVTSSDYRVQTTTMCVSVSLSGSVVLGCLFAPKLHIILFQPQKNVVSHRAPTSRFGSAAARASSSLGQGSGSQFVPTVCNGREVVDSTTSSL
Put plainly: Human mGluR2 negative allosteric modulator evaluation using Ca++ functional assay (agonist and NAM activity). In kind it is cell-based. As to conditions: hmGluR2 in HEK-293 cells, EC80 glutamate, Fluo4AM calcium readout; read-out: mGluR2 negative allosteric modulator activity IC50. An outline of the steps:
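Compound alone (agonist mode) was followed on the same plate by EC80 glutamate (NAM mode), with fluorescence read 60 s. Eight-point curves, variable-slope fit, duplicate, two independent runs.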

Broadly, the pIC50 is the IC50 on a negative log10 scale, so that one unit is a factor of ten. By melting point is commonly meant the temperature, or range, at which the solid turns liquid. Take `Cc1cc(-c2ccc3c(=O)n(C)c4cc(C5CCOCC5)nn4c3c2)cc(C)n1.Cl` [Example 97, 8-(2,6-Dimethyl-pyridin-4-yl)-4-methyl-2-(tetrahydro-pyran-4-yl)-4H-pyrazolo[1,5-a]quinazolin-5-one]: the melting point was greater than 250 °C. Also, the negative logarithm of the IC50 (pIC50) in data set [1] is greater than 6.00.
Take `Cn1c(=O)c2ccc(-c3cccc(S(=O)(=O)NC(C)(C)CO)c3)cc2n2nc(C3CCOCC3)cc12` [Example 101, N-(2-Hydroxy-1,1-dimethyl-ethyl)-3-[4-methyl-5-oxo-2-(tetrahydro-pyran-4-yl)-4,5-dihydro-pyrazolo[1,5-a]quinazolin-8-yl]-benzenesulfonamide]: the melting point fell in the range of 223 to 226 °C. In addition, the pIC50 in data set [1] was greater than 6.00.
In the same order, the values of `Cc1cc(-c2ccc3c(=O)n(CC(F)F)c4cc(C5CCOCC5)nn4c3c2)cc(C)n1.Cl` [Example 102, 4-(2,2-Difluoro-ethyl)-8-(2,6-dimethyl-pyridin-4-yl)-2-(tetrahydro-pyran-4-yl)-4H-pyrazolo[1,5-a]quinazolin-5-one] are greater than 250 °C and greater than 6.00.
`Cl.Nc1ccc(-c2ccc3c(=O)n(CC(F)F)c4cc(C5CCOCC5)nn4c3c2)cn1` [Example 103, 8-(6-Amino-pyridin-3-yl)-4-(2,2-difluoro-ethyl)-2-(tetrahydro-pyran-4-yl)-4H-pyrazolo[1,5-a]quinazolin-5-one] came in with a melting point greater than 250 °C. Also, in data set [1], the pIC50 was greater than 6.00.
On the same counts, the results for `Cl.Nc1ccc(-c2ccc3c(=O)n(CC(F)(F)F)c4cc(C5CCOCC5)nn4c3c2)cn1` [Example 104, 8-(6-Amino-pyridin-3-yl)-2-(tetrahydro-pyran-4-yl)-4-(2,2,2-trifluoro-ethyl)-4H-pyrazolo[1,5-a]quinazolin-5-one] are greater than 250 °C and greater than 6.00.
On the same counts, the results for `Cc1cc(-c2ccc3c(=O)n(C)c4cc(C5CCOC5)nn4c3c2)cc(C)n1.Cl` (centres unmarked) [Example 106, 8-(2,6-Dimethyl-pyridin-4-yl)-4-methyl-2-(tetrahydro-furan-3-yl)-4H-pyrazolo[1,5-a]quinazolin-5-one] are greater than 250 °C and greater than 6.00.
Compound `Cc1cc(-c2ccc3c(=O)n(C)c4cc(C5CCCOC5)nn4c3c2)cc(C)n1.Cl` (centres unmarked) [Example 108, 8-(2,6-Dimethyl-pyridin-4-yl)-4-methyl-2-(tetrahydro-pyran-3-yl)-4H-pyrazolo[1,5-a]quinazolin-5-one] had a melting point of 182 to 193 °C. The pIC50 in data set [1] was greater than 6.00.
As to `Cc1cc(-c2ccc3c(=O)n(C)c4cc(C5CCCCO5)nn4c3c2)cc(C)n1.Cl` (centres unmarked) [Example 109, 8-(2,6-Dimethyl-pyridin-4-yl)-4-methyl-2-(tetrahydro-pyran-2-yl)-4H-pyrazolo[1,5-a]quinazolin-5-one], the melting point was 186 to 194 °C. The pIC50 in data set [1] is greater than 6.00.
For `Cl.Cn1c(=O)c2ccc(-c3ccc(N)nc3)cc2n2cc(-c3ccccc3)cc12` [Example 110, 8-(6-Amino-pyridin-3-yl)-4-methyl-2-phenyl-4H-pyrrolo[1,2-a]quinazolin-5-one], the melting point is greater than 250 °C. In addition, the pIC50 in data set [1] is greater than 6.00.
`Cc1cc(-c2ccc3c(=O)n(C)c4cc(-c5ccccc5)cn4c3c2)cc(C)n1.Cl` [Example 111, 8-(2,6-Dimethyl-pyridin-4-yl)-4-methyl-2-phenyl-4H-pyrrolo[1,2-a]quinazolin-5-one] displayed a melting point greater than 250 °C. Further, the negative-log IC50 (pIC50) in data set [1] was greater than 6.00.
On the same counts, the results for `Cc1cc(-c2cc3n(C)c(=O)c4ccc(-c5ccccc5)cc4n3n2)cc(C)n1.Cl` [Example 115, 2-(2,6-Dimethyl-pyridin-4-yl)-4-methyl-8-phenyl-4H-pyrazolo[1,5-a]quinazolin-5-one] are greater than 250 °C and greater than 6.00.
As for `Cc1cc(-c2cc3n(C)c(=O)c4ccc(-c5c[nH]nc5C)cc4n3n2)cc(C)n1.Cl` [Example 121, 2-(2,6-Dimethyl-pyridin-4-yl)-4-methyl-8-(3-methyl-1H-pyrazol-4-yl)-4H-pyrazolo[1,5-a]quinazolin-5-one], the melting point was greater than 250 °C. Moreover, in data set [1], the pIC50 was greater than 6.00.
`Cc1cc(-c2cc3n(C)c(=O)c4ccc(-c5cnn(C)c5)cc4n3n2)cc(C)n1.Cl` [Example 122, 2-(2,6-Dimethyl-pyridin-4-yl)-4-methyl-8-(1-methyl-1H-pyrazol-4-yl)-4H-pyrazolo[1,5-a]quinazolin-5-one] showed a melting point greater than 250 °C. Moreover, the pIC50 in data set [1] was greater than 6.00.
On the same counts, the results for `Cn1cc(-c2cc3n(C)c(=O)c4ccc(-c5ccccc5)cc4n3n2)cn1` [Example 124, 4-Methyl-2-(1-methyl-1H-pyrazol-4-yl)-8-phenyl-4H-pyrazolo[1,5-a]quinazolin-5-one] are 228 to 231 °C and greater than 6.00.
The compound `Cl.Cn1cc(-c2cc3n(C)c(=O)c4ccc(-c5cccnc5)cc4n3n2)cn1` [Example 126, 4-Methyl-2-(1-methyl-1H-pyrazol-4-yl)-8-pyridin-3-yl-4H-pyrazolo[1,5-a]quinazolin-5-one] gave a melting point greater than 250 °C. The pIC50 in data set [1] was greater than 6.00.
In the same order, the values of `Cl.Cn1cc(-c2cc3n(C)c(=O)c4ccc(-c5ccc(N)nc5)cc4n3n2)cn1` [Example 128, 8-(6-Amino-pyridin-3-yl)-4-methyl-2-(1-methyl-1H-pyrazol-4-yl)-4H-pyrazolo[1,5-a]quinazolin-5-one] are 217 to 228 °C and greater than 6.00.
`Cl.Cn1cc(-c2cc3n(C)c(=O)c4ccc(-c5ccncc5)cc4n3n2)cn1` [Example 129, 4-Methyl-2-(1-methyl-1H-pyrazol-4-yl)-8-pyridin-4-yl-4H-pyrazolo[1,5-a]quinazolin-5-one] returned a melting point greater than 250 °C. In data set [1], the pIC50 was greater than 6.00.
In the same order, the values of `Cc1cc(-c2ccc3c(=O)n(C)c4cc(-c5cnn(C)c5)nn4c3c2)cc(C)n1.Cl` [Example 130, 8-(2,6-Dimethyl-pyridin-4-yl)-4-methyl-2-(1-methyl-1H-pyrazol-4-yl)-4H-pyrazolo[1,5-a]quinazolin-5-one] are greater than 250 °C and greater than 6.00.
On the same counts, the results for `CCn1cc(-c2cc3n(C)c(=O)c4ccc(-c5ccc(N)nc5)cc4n3n2)cn1.Cl` [Example 131, 8-(6-Amino-pyridin-3-yl)-2-(1-ethyl-1H-pyrazol-4-yl)-4-methyl-4H-pyrazolo[1,5-a]quinazolin-5-one] are 226 to 238 °C and greater than 6.00.
For the compound `Cc1ncccc1-c1ccc2c(=O)n(C)c3cc(-c4ccnc(C(F)(F)F)c4)nn3c2c1.Cl` [Example 135, 4-Methyl-8-(2-methyl-pyridin-3-yl)-2-(2-trifluoromethyl-pyridin-4-yl)-4H-pyrazolo[1,5-a]quinazolin-5-one], the melting point was greater than 250 °C. Also, the pIC50 in data set [1] is greater than 6.00.
Compound `Cl.Cn1c(=O)c2ccc(-c3ccc(N)nc3)cc2n2nc(-c3ccnc(C(F)(F)F)c3)cc12` [Example 136, 8-(6-Amino-pyridin-3-yl)-4-methyl-2-(2-trifluoromethyl-pyridin-4-yl)-4H-pyrazolo[1,5-a]quinazolin-5-one] had a melting point greater than 250 °C. In data set [1], the negative logarithm of the IC50 (pIC50) was greater than 6.00.
In the same order, the values of `CCc1ncccc1-c1ccc2c(=O)n(C)c3cc(-c4ccnc(C(F)(F)F)c4)nn3c2c1.Cl` [Example 137, 8-(2-Ethyl-pyridin-3-yl)-4-methyl-2-(2-trifluoromethyl-pyridin-4-yl)-4H-pyrazolo[1,5-a]quinazolin-5-one] are greater than 250 °C and greater than 6.00.
With `Cc1cc(-c2ccc3c(=O)n(C)c4cc(-c5ccnc(C(F)(F)F)c5)nn4c3c2)ccn1.Cl` [Example 138, 4-Methyl-8-(2-methyl-pyridin-4-yl)-2-(2-trifluoromethyl-pyridin-4-yl)-4H-pyrazolo[1,5-a]quinazolin-5-one], the melting point is greater than 250 °C. The pIC50 in data set [1] was greater than 6.00.
In the same order, the values of `Cn1c(=O)c2ccc(-c3ccnc(C(F)(F)F)c3)cc2n2nc(-c3ccnc(C(F)(F)F)c3)cc12` [Example 139, 4-Methyl-2,8-bis-(2-trifluoromethyl-pyridin-4-yl)-4H-pyrazolo[1,5-a]quinazolin-5-one] are greater than 250 °C and greater than 6.00.
On the same counts, the results for `Cn1c(=O)c2ccc(-c3ccnc(F)c3)cc2n2nc(-c3ccnc(C(F)(F)F)c3)cc12` [Example 140, 8-(2-Fluoro-pyridin-4-yl)-4-methyl-2-(2-trifluoromethyl-pyridin-4-yl)-4H-pyrazolo[1,5-a]quinazolin-5-one] are greater than 250 °C and greater than 6.00.
On the same counts, the results for `Cn1c(=O)c2ccc(-c3ccc(F)nc3)cc2n2nc(-c3ccnc(C(F)(F)F)c3)cc12` [Example 141, 8-(6-Fluoro-pyridin-3-yl)-4-methyl-2-(2-trifluoromethyl-pyridin-4-yl)-4H-pyrazolo[1,5-a]quinazolin-5-one] are greater than 250 °C and greater than 6.00.
Compound `Cc1ccc(-c2ccc3c(=O)n(C)c4cc(-c5ccnc(C(F)(F)F)c5)nn4c3c2)c(C)n1.Cl` [Example 143, 8-(2,6-Dimethyl-pyridin-3-yl)-4-methyl-2-(2-trifluoromethyl-pyridin-4-yl)-4H-pyrazolo[1,5-a]quinazolin-5-one] registered a melting point greater than 250 °C. Moreover, the pIC50 in data set [1] is greater than 6.00.
Take `Cc1ncncc1-c1ccc2c(=O)n(C)c3cc(-c4ccnc(C(F)(F)F)c4)nn3c2c1.Cl` [Example 144, 4-Methyl-8-(4-methyl-pyrimidin-5-yl)-2-(2-trifluoromethyl-pyridin-4-yl)-4H-pyrazolo[1,5-a]quinazolin-5-one]: the melting point was greater than 250 °C. Also, the pIC50 in data set [1] was greater than 6.00.
